pIC50: −log10 of the molar value.
Experiments:
[1] = biological target: DHFR (Escherichia coli, UniProt P0ABQ4); experiment: Validation of novel hit by FP assay (IC50); type: binding; details: validation of screening hit; FIG. 2g
Description: (§1) FIGS. 2A-2H show the application of LDA in quantifying compounds' IC50 and screening. […] IC50 of compound 1-3 determined by LDA (FIG. 2B) and FP assay (FIG. 2C). […] DNA samples with read numbers below 2 in sequencing were excluded.
(§2) Enrichment of the probes from the two groups were well distinguished (Z′ factor=0.77), indicating a robustness suitable for HTS (FIG. 1e). To further assess well-to-well variability, this experiment was repeated with separate incubation of samples in a well plate. A similar but slightly worse Z′ factor (Z′=0.54, Fig. SX) was observed. We then used this approach to screen the Library of Pharmacologically Active Compounds (LOPAC) library against dihydrofolate reductase (DHFR), a therapeutic target for treating infections (FIG. 2f). Hit compounds within the library displaces the DNA-linked trimethoprim, leading to lower enrichment of the DNA-trimethoprim.

[2] = biological target: dihydrofolate reductase (DHFR) (Escherichia coli, UniProt P0ABQ4); experiment: LDA screening of LOPAC library with DNA-linked trimethoprim probe; type: binding; details: FIG. 2f
Description: as §1, §2

**Q.** Which results are given for `CN(CCOc1ccc(C[C@H](Nc2ccccc2C(=O)c2ccccc2)C(=O)O)cc1)c1ccccn1` [GW1929]?
**A.** pIC50 [1]: 5.10; probe recovery (enrichment of DNA-trimethoprim) in LOPAC screen [2]: low probe recovery
